Assay results published in US20260198495A1, “BINARY INSECTICIDE COMPOSITION AND USE THEREOF” (SHENYANG SINOCHEM AGROCHEMICALS R & D CO., LTD., priority 2022, published 2026).
≈ marks a conversion by molar mass, not a printed value.

Legend:
Format in all cases: in vivo
[1] = test system: Thrips flavus Schrank nymphs; assay: Joint toxicity of I-72 + flonicamid, Example 78, Table 78; conditions: Thrips flavus; A = compound I-72, B = flonicamid; eggplant seedling spraying; 48 hours; read-out: LC50
Method: Test target: Thrips flavus Schrank nymphs.
(§1) Preparation of the pesticide solution: according to different test requirements, the test samples were accurately weighed respectively with an electronic analytical balance. The technical pesticides were dissolved in acetone, and then diluted with 0.1% Tween 80 water into a series of pesticide solutions with a certain concentration gradient according to the experimental design dosage.
Experimental method: first, eggplant seedlings with Thrips flavus Schrank were selected, and the base number was counted. Then, uniform spraying was performed with the pesticide solution in the order from low to high doses according to the experimental design, with 2 mL for each seedling and 3 replicates for each treatment. In addition, a blank control was set up.
(§2) The treated test materials were placed in an observation room, and the temperature, humidity and illumination of the observation room could be adjusted as needed. The number of dead and live insects was investigated 48 hours later. […] Then, the co-toxicity coefficient of each ratio was calculated using the Sun Y-P method to evaluate the mixing effect (the same as in Example 1).

[2] = test system: Aphis gossypii Glover nymphs; assay: Joint toxicity of I-72 + flonicamid, Example 74, Table 74; conditions: Aphis gossypii; A = compound I-72, B = flonicamid; cotton leaf spraying; 48 hours; read-out: LC50
Method: Test target: Aphis gossypii Glover nymphs, a sensitive strain reared indoors.
as §1
(§3) Experimental method: first, cotton leaves with uniform and consistent Aphis gossypii were selected, with about 30-40 insects on each leaf. Then, they were evenly sprayed with the pesticide solution in the order from low dosage to high dosage according to the experimental design, with 1.5 mL for each leaf and 3 replicates for each treatment. In addition, a blank control was set up.
as §2

[3] = test system: Sitobion miscanthi (Fabricius); assay: whole plant or invertebrate; conditions: Sitobion miscanthi, in Triticum aestivum; single pesticide, 10 mg/L; 48 hours; read-out: Measured mortality rate
Method: Test target: Sitobion miscanthi (Fabricius).
as §1
as §3, with “wheat seedlings” for “cotton leaves”, “Sitobion miscanthi (Fabricius)” for “Aphis gossypii”, “pot of wheat.” for “leaf.”, “2.5” for “1.5”, “pot” for “leaf”, “control CK” for “control”
The treated test materials were placed in an observation room, and the temperature, humidity and illumination of the observation room could be adjusted as needed. The number of dead and alive insects was investigated 48 hours later, and the corrected mortality rate was calculated using the Abbott's formula.
The synergism of the mixture was evaluated by the Bliss method. According to the concept of independent joint action he proposed, Bliss believes that the theoretical mortality rate P when insecticides are used in combination can be calculated by the following formula: […]
Pm is the measured mortality rate (%) of the target when the first active ingredient is at a concentration of m; and Pn is the measured mortality rate (%) of the target when the second active ingredient is used at a concentration of n.
(§4) If the actual mortality rate of the target after the two active ingredients are mixed at a certain concentration is greater than theoretical mortality rate P, it is determined that the two active ingredients have a synergistic effect when used in combination at the set concentration, and otherwise, they have an antagonistic effect.

[4] = test system: mixed aphids of Myzus persicae (Sulzer); assay: Joint toxicity of I-72 + matrine, Example 34, Table 34; conditions: A = compound I-72, B = matrine, spraying on cabbage leaves with aphids, 48 hours, read-out: LC50
Source text: Test subject: mixed aphids of Myzus persicae (Sulzer), a sensitive strain reared indoors.
Experimental method: the spraying method on leaves with aphids was adopted. Cabbage leaves with a certain number of Myzus persicae (Sulzer) were taken. The prepared pesticide solutions were evenly sprayed on both the front and back sides of the leaves in the order from low concentration to high concentration according to the experimental design. Then, the leaves were placed in a 6-cm-diameter Petri dish with filter paper. After natural air-drying in the shade, they were placed in the observation room. The experiment had 3 replicates set, and in addition, a blank control was set up. The number of dead and live insects was investigated 48 hours later. The corrected mortality rate was calculated using the Abbott's formula, and the DPS data processing software was used for statistical analysis to calculate the toxicities (LC50 values) of the single test pesticides and the mixtures under the test ratios.
The test conditions, the preparation of the pesticide solution and the evaluation method were the same as those in Example 1.

[5] = test system: 2nd-instar larvae of Chilo suppressalis (Walker); assay: whole plant or invertebrate; conditions: Chilo suppressalis; resistant 2nd-instar larvae, rice stalk spraying, 72 h; A = compound I-72, B = spinetoram; read-out: LC50
Method: In addition, a blank control was set up. The number of dead and live insects was investigated 72 hours later.

[6] = test system: 3rd-instar larvae of Pyrausta nubilalis Hubern; assay: Synergism assay (Bliss) of I-72 + abamectin, spinosad, spinetoram, emamectin benzoate, Example 6, Table 6; conditions: Ostrinia nubilalis, 72 h, read-out: Mortality rate (%)
Method: Test subject: 3rd-instar larvae of Pyrausta nubilalis Hubern, a sensitive strain reared indoors.
Test conditions: temperature: 24-26° C., humidity: RH 60%, and illumination: L:D=14:10
Preparation method: the test pesticides were accurately weighed respectively with an electronic analytical balance. After the two technical materials were respectively added into an appropriate amount of solvent and completely dissolved, the stock solution of the required concentration was prepared with water containing 0.1% Tween 80. The stock solutions of the two active ingredients were mixed in a certain ratio to prepare a mixed solution, which was then diluted respectively into a series of pesticide solutions with a certain concentration gradient according to the experimental design dosage.
Experimental method: the artificial diet-pesticide film method was adopted. A standard clean 24-well culture plate was selected. 1 ml of artificial diet was added to each well. After the diet cooled and solidified, a quantitative amount of a pesticide solution was added to the culture plate using a continuous sampler, and then it was air-dried naturally in the shade. The standard test insects were introduced, with 1 insect in each well, a total of 48 insects. The treated test insects were placed in an observation room under certain conditions. The reaction of the test insects was regularly observed, and the number of dead and live insects was investigated 72 h later.
The evaluation method adopted was the Bliss method. This method is applicable to the qualitative screening of insecticidal compositions. According to the concept of independent joint action he proposed, Bliss believes that the theoretical mortality rate P when insecticides are used in combination can be calculated by the following formula: […]
Pm is the mortality rate (%) of the target when the first active ingredient is at a concentration of m; and Pn is the mortality rate (%) of the target when the second active ingredient is at a concentration of n.
as §4

CN(C(=O)c1ccc2c(c1)OC(F)(F)O2)c1cccc(C(=O)Nc2c(Br)cc(C(F)(C(F)(F)F)C(F)(F)F)cc2OC(F)F)c1F [Compound I-72]
LC50 [1]: 1.9 µg/mL | LC50 [2]: 2.81 µg/mL | mortality at 10 µg/mL [3]: 64.2% | LC50 [4]: 6.36 µg/mL | LC50 [5]: 0.811 µg/mL (≈ 1.09 µM) | mortality at 0.05 µg/mL ([6]; single agent 0.05 mg/L): 10.4% | mortality at 0.1 µg/mL ([6]; single agent 0.1 mg/L): 25% | mortality at 1 µg/mL ([6]; single agent 1 mg/L): 62.5% | mortality at 2 µg/mL ([6]; single agent 2 mg/L): 72.9% | mortality at 5 µg/mL ([6]; single agent 5 mg/L): 81.2%
